Key:
Assay in all cases: relative viability (nuclei count vs DMSO), 5 days (fraction); higher = more cells survive
[1] = compound: CC(=O)Nc1cccc(-n2c(=O)n(C3CC3)c(=O)c3c(Nc4ccc(I)cc4F)n(C)c(=O)c(C)c32)c1 [Trametinib] + COc1cccc2cc(-c3nc([C@H]4CC[C@H](C(=O)O)CC4)n4ncnc(N)c34)[nH]c12 [OSI-027] (partner 0.5 µM)
In short: (§1)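 Relative viability was taken as the ratio of nuclei in treated wells to nuclei in vehicle wells. Lung cancer cell lines in 1536-well plates received compounds by pin tool one day after seeding, either one drug alone or a fixed anchor-drug dose plus five library-drug doses (not always all listed) in √10 steps. Nuclei were counted on 4× images after 5 days of treatment, and values are medians of duplicate plates.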

[2] = compound: CN1C=C(C2=CC=CC=C21)/C=C\3/C4=C(C=CC=N4)NC3=O + CC(=O)c1c(C)c2cnc(Nc3ccc(N4CCNCC4)cn3)nc2n(C2CCCC2)c1=O [Palbociclib] (partner 0.5 µM)
In short: as §1

[3] = compound: CN1C=C(C2=CC=CC=C21)/C=C\3/C4=C(C=CC=N4)NC3=O + Cc1nc(NC(=O)N2CCC[C@H]2C(N)=O)sc1-c1ccnc(C(C)(C)C(F)(F)F)c1 [Alpelisib] (partner 2 µM)
In short: as §1

[4] = compound: CN1C=C(C2=CC=CC=C21)/C=C\3/C4=C(C=CC=N4)NC3=O + O=C(c1cc(Cc2n[nH]c(=O)c3ccccc23)ccc1F)N1CCN(C(=O)C2CC2)CC1 [Olaparib] (partner 8 µM)
In short: as §1

Cell Line | relative viability ([1]; first compound 0.0025 µM) | relative viability ([1]; first compound 0.007906 µM) | relative viability ([1]; first compound 0.025 µM) | relative viability ([1]; first compound 0.07906 µM) | relative viability ([1]; first compound 0.25 µM) | relative viability ([2]; first compound 0.02 µM) | relative viability ([2]; first compound 0.06325 µM) | relative viability ([2]; first compound 0.6325 µM) | relative viability ([2]; first compound 2 µM) | relative viability ([3]; first compound 0.02 µM) | relative viability ([3]; first compound 0.06325 µM) | relative viability ([3]; first compound 0.6325 µM) | relative viability ([3]; first compound 2 µM) | relative viability ([4]; first compound 0.02 µM) | relative viability ([4]; first compound 0.06325 µM) | relative viability ([4]; first compound 0.6325 µM) | relative viability ([4]; first compound 2 µM) | relative viability ([2]; first compound 0.2 µM) | relative viability ([3]; first compound 0.2 µM) | relative viability ([4]; first compound 0.2 µM)
A-427 | 0.373 | 0.287 | 0.212 | 0.242 | 0.143 | 0.577 | 0.492 | 0.514 | 0.572 | 1.08 | 1.02 | 1.08 | 1.13 | 0.708 | 0.606 | 0.71 | 0.76 | – | – | –
RERF-LC-KJ | 0.493 | 0.471 | 0.414 | 0.459 | 0.372 | 0.937 | 1.07 | 0.963 | 1.12 | 0.904 | 0.848 | 0.811 | 0.736 | 0.736 | 0.681 | 0.528 | 0.468 | 0.988 | 0.748 | 0.763
NCI-H647 | 0.674 | 0.696 | 0.533 | 0.368 | 0.175 | 0.367 | 0.354 | 0.37 | 0.348 | 0.977 | 0.948 | 0.951 | 1.14 | 0.262 | 0.426 | 0.395 | 0.458 | 0.292 | 0.904 | 0.446
NCI-H1734 | 0.591 | 0.517 | 0.404 | 0.492 | 0.278 | 0.316 | 0.372 | 0.334 | 0.345 | 0.706 | 0.663 | 0.675 | 0.662 | 0.355 | 0.596 | 0.588 | 0.631 | – | – | –
SK-LU-1 | 0.319 | 0.313 | 0.217 | 0.198 | 0.188 | 0.282 | 0.367 | 0.342 | 0.399 | 0.879 | 0.671 | 0.94 | 1.17 | 0.424 | 0.43 | 0.444 | 0.602 | 0.369 | 0.956 | 0.406
NCI-H1395 | 0.693 | 0.617 | 0.552 | 0.468 | 0.404 | 0.567 | 0.534 | 0.618 | 0.581 | 1.11 | 1.08 | 1.3 | 0.928 | 0.461 | 0.476 | 0.527 | 0.457 | 0.581 | – | 0.455
COR-L23 | 0.686 | 0.7 | 0.364 | 0.455 | 0.249 | 0.314 | 0.292 | 0.237 | 0.299 | 0.764 | 0.698 | 0.724 | 0.589 | 0.349 | 0.289 | 0.283 | 0.312 | 0.28 | 0.718 | 0.274
EMC-BAC-2 | 0.452 | 0.488 | 0.381 | 0.511 | 0.359 | 0.471 | 0.513 | 0.521 | 0.535 | 0.673 | 0.452 | 0.768 | 0.799 | 0.354 | 0.445 | 0.418 | 0.383 | 0.504 | 0.736 | 0.488
NCI-H1355 | 0.344 | 0.327 | 0.241 | 0.263 | 0.242 | 0.303 | 0.369 | 0.476 | 0.517 | 0.663 | 0.66 | 0.468 | 0.547 | 0.558 | 0.678 | 0.469 | 0.574 | 0.387 | 0.739 | 0.717
NCI-H1792 | 0.565 | 0.62 | 0.745 | 0.618 | 0.51 | 0.624 | 0.679 | – | 0.559 | 0.536 | 0.723 | – | 0.581 | 0.502 | 0.349 | 0.254 | 0.376 | 0.656 | 0.608 | 0.32
NCI-H1944 | 0.359 | 0.309 | 0.318 | 0.279 | 0.23 | 0.28 | 0.351 | 0.267 | 0.314 | 0.721 | 0.789 | 0.833 | 0.748 | 0.382 | 0.368 | 0.377 | 0.403 | – | – | –
ABC-1 | 0.403 | 0.439 | 0.28 | 0.266 | 0.225 | 0.52 | 0.76 | 0.593 | 0.738 | 1.05 | 0.785 | 0.714 | 0.923 | 0.976 | 0.745 | 0.826 | 0.86 | 0.789 | 0.84 | 0.612
HOP-62 | 0.879 | 0.873 | 0.493 | 0.219 | 0.188 | 0.438 | 0.415 | 0.449 | 0.483 | 0.821 | 0.843 | 0.926 | 1.07 | 0.537 | 0.509 | 0.968 | 0.629 | – | 0.957 | –
NCI-H2009 | 0.505 | 0.405 | 0.229 | 0.226 | 0.247 | 0.189 | 0.198 | 0.198 | 0.201 | 1.2 | 1.14 | 1.24 | 1.05 | 0.598 | 0.636 | 0.677 | 0.604 | 0.202 | 1.22 | 0.703

From the supplement of paper PMC10307832
